Reference: patent publication US20220135539A1, “BIARYL AMIDE COMPOUNDS, PREPARATION METHODS AND MEDICAL APPLICATIONS THEREOF” (Eternity Bioscience Inc., priority 2020, published 2022)

Key:
[1] = tested on: Calu6 (KRAS^Q16K) cancer cell; assay: Calu6 Cancer Cell Growth Inhibition Assay (CellTiter-Glo); assay type: cell-based, human; details: for GI50: Homo sapiens, Calu-6, 72 h, Calu6 cells, incubated for 3 days, CellTiter-Glo
Description: (§1) Activity of human Calu6 (KRAS^Q16K) cancer cell growth inhibition was assessed in vitro using CellTiter-Glo® Luminescent Cell Viability Assay. The assay was performed according to the kit instructions (Promega, cat #G7570). Briefly, Calu6 cells (ATCC, #HTB-56™) were seeded in 96-well plates at a density of 2,500 cells/well in 90 and cells were cultured overnight in a humidified, 5% CO2 cell culture incubator at 37° C. 10 μL serial diluted compounds were added into each cell-culture well and incubated for 3 days. 100 μL CellTiter-Glo® Reagent was added into each well. The reactions were incubated at Room Temperature for 10 minutes, and luminescence signals were recorded on a Tecan Luminescence Plate Reader. Inhibition data were calculated by comparison to vehicle control wells for 0% inhibition and non-stimulated control wells for 100% inhibition. Dose response curves were then generated to determine the concentration required to suppress 50% of cellular growth response (GI50) as derived by non-linear regression analysis using GraphPad Prism.

[2] = tested on: NCI-H358 (KRAS^G12C) non-small cell lung cancer cell; assay: NCI-H358 Cancer Cell Growth Inhibition Assay (CellTiter-Glo); assay type: cell-based, human; details: for GI50: Homo sapiens, 72 h, NCI-H358 cells, incubated for 3 days, CellTiter-Glo
Description: as §1, with “NCI-H358 (KRAS^G12C) non-small cell lung” for “Calu6 (KRAS^Q16K)”, “NCI-H358” for “Calu6”, “#CRL-5807)” for “#HTB-56™)”, “in” for “in 90”

[3] = tested on: A375 (BRAF^V600E) malignant melanoma cell; assay: A375 Cell Growth Inhibition Assay (CellTiter-Glo); assay type: cell-based, human; details: for GI50: Homo sapiens, A-375, 72 h, A375 cells, incubated for 3 days, CellTiter-Glo
Description: as §1, with “A375 (BRAF^V600E) malignant melanoma” for “Calu6 (KRAS^Q16K) cancer”, “A375” for “Calu6”, “#CRL-1619™)” for “#HTB-56™)”, “[…]” for “100 μL”

[4] = molecular target: T1, human recombinant V600E mutant BRAF (Homo sapiens, UniProt P15056, V600E); assay: BRAF^V600E Inhibition Assay (TR-FRET); assay type: biochemical
T1 construct: purchased BPS Bioscience 40533
Description: (§2) Activity of human recombinant V600E mutant BRAF were assessed in vitro using time-resolved fluorescence resonance energy transfer (TR-FRET) assay. The assay was performed according to the kit instructions. Briefly, the V600E mutant BRAF enzyme (BPS Bioscience, cat #40533) was diluted to 0.027 ng/μL using the 1× kinase buffer A (Life Tech, cat #PV6135, 5× dilution with H2O); the Fluorescein labeled-MAP2K1 (Life Tech, Cat #PV4812) was diluted to 0.5 μM; ATP (Life Tech, cat #PV3227) was diluted to 20 μM; 2.5 μl of each diluted reagent was added to a 384-well (PerkinElmer, ProxiPlate-384 Plus, 6008280) plate and mixed together; 2.54, serial diluted compounds were added into the mixture. 104, 400-fold diluted LanthaScreen Tb-pMAP2K1 (pSer217/221) antibody (Life Tech, cat #PV4817) was then added to each kinase reaction. The reactions were incubated at Room Temperature for 1 hour. The plate was then read on PHERAstar FSX using 340/490/520 module. Inhibition data were calculated by comparison to vehicle control wells for 0% inhibition and non-stimulated control wells for 100% inhibition. Dose response curves were then generated to determine the concentration required to suppress 50% of enzymatic response (IC50) as derived by non-linear regression analysis using GraphPad Prism.

human recombinant cRAF = human recombinant cRAF (Homo sapiens, UniProt P04049); assay: cRAF Inhibition Assay (TR-FRET); assay type: biochemical
Description: as §2, with “cRAF” for “V600E mutant BRAF”, “#40008)” for “#40533)”, “2.54,” for “2.5 μl”, “384-well plate” for “384-well”, “6008280)” for “6008280) plate”, “compound” for “compounds”

human recombinant BRAF = molecular target: T2, human recombinant BRAF (Homo sapiens, UniProt P15056); assay: BRAF^WT Inhibition Assay (TR-FRET); assay type: biochemical
T2 construct: purchased BPS Bioscience 40065
Description: Activity of human recombinant BRAF were assessed in vitro using time-resolved fluorescence resonance energy transfer (TR-FRET) assay. The assay was performed according to the kit instructions. Briefly, the BRAF enzyme (BPS Bioscience, cat #40065) was diluted to 0.027 ng/μL using the 1× kinase buffer A (Life Tech, cat #PV6135, 5× dilution with H2O); the Fluorescein labeled-MAP2K1 (Life Tech, Cat #PV4812) was diluted to 0.5 μM; ATP (Life Tech, cat #PV3227) was diluted to 20 μM; 2.54, of each diluted reagent was added to a 384-well plate (PerkinElmer, ProxiPlate-384 Plus, 6008280) and mixed together; 2.54, serial diluted compound were added into the mixture. 104, 400-fold diluted LanthaScreen Tb-pMAP2K1 (pSer217/221) antibody (Life Tech, cat #PV4817) was then added to each kinase reaction. The reactions were incubated at Room Temperature for 1 hour. The plate was then read on PHERAstar FSX using 340/490/520 module. Inhibition data were calculated by comparison to vehicle control wells for 0% inhibition and non-stimulated control wells for 100% inhibition. Dose response curves were then generated to determine the concentration required to suppress 50% of enzymatic response (IC50) as derived by non-linear regression analysis using GraphPad Prism.

RAF Kinase = details: background statement on the reference compound; cited from earlier work

T1 sequence (P15056 whole entry V600E): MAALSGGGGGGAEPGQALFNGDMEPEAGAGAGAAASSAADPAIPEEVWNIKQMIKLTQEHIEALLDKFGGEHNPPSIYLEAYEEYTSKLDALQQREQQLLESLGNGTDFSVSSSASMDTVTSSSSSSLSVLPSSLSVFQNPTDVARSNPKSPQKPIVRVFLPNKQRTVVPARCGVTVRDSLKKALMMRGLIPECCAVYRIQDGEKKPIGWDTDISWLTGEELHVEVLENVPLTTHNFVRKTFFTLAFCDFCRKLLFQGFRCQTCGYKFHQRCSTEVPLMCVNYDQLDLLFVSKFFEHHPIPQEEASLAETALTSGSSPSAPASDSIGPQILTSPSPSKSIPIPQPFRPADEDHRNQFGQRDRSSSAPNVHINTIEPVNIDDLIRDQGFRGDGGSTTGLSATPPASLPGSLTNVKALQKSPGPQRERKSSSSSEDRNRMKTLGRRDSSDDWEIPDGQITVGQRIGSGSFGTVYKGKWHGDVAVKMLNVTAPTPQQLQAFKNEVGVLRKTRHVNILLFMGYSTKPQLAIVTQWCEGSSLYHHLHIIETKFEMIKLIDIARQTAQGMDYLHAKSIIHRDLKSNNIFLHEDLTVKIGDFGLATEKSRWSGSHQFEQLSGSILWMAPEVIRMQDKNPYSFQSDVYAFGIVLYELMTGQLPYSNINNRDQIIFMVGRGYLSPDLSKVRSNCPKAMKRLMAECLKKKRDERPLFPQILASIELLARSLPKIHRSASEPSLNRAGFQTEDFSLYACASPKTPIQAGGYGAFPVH
T2 sequence (P15056 whole entry): as the sequence (P15056 whole entry V600E) above, with E600V counted along it
Sequence of human recombinant cRAF (P04049 whole entry Y340D/Y341D, form open): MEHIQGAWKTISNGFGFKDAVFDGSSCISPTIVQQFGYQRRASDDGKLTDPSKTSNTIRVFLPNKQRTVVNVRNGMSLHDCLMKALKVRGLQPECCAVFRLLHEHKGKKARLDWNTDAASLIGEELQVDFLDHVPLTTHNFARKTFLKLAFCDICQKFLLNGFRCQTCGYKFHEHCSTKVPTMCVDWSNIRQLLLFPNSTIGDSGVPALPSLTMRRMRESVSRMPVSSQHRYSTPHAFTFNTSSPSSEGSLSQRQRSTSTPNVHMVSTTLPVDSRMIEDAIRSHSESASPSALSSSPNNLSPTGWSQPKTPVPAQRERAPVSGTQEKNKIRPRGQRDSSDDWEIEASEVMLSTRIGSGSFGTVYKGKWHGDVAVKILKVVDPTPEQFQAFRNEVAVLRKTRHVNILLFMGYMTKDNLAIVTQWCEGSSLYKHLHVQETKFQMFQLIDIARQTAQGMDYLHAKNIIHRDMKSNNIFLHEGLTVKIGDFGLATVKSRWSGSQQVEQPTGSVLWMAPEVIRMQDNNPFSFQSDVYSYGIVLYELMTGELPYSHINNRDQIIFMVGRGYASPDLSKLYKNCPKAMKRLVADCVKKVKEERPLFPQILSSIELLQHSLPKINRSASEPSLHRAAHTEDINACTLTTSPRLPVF

SMILES | cellular potency, Calu6 ([1]; Calu6 cancer cell line) | GI50 [1] [nM] | cellular potency, H358 ([2]; H358 cancer cell line) | cell growth inhibition in H358 cancer line compared to LXH254 [2] | GI50 [2] [nM] | cellular potency, A375 ([3]; A375 cancer cell line) | GI50 [3] [nM] | IC50 [4] [nM] | IC50 (human recombinant cRAF) [nM] | IC50 (human recombinant BRAF) [nM] | potency for bRAF and cRAF (RAF Kinase)
Cc1ccc(NC(=O)c2ccc3c(c2)OC(F)(F)O3)cc1-c1cc(OCCO)nc(N2CCOCC2)c1 [Example 1, 2,2-difluoro-N-(3-(2-(2-hydroxyethoxy)-6-morpholinopyridin-4-yl)-4-methylphenyl)benzo[d][1,3]dioxole-5-carboxamide] | excellent cellular potency | 64 | excellent cellular potency | better or similar cell growth inhibition | 480 | excellent cellular potency | 150 | 32.5 | 15 | 87 | –
Cc1ccc(NC(=O)c2ccc3c(c2)OCCO3)cc1-c1cc(OCCO)nc(N2CCOCC2)c1 [Example 13, N-(3-(2-(2-hydroxyethoxy)-6-morpholinopyridin-4-yl)-4-methylphenyl)-2,3-dihydrobenzo[b][1,4]dioxine-6-carboxamide] | – | – | – | better or similar cell growth inhibition | 1200 | – | – | 13 | 4.7 | 31 | –
Cc1ccc(NC(=O)c2ccnc(C(F)(F)F)c2)cc1-c1cc(OCCO)nc(N2CCOCC2)c1 [LXH254, reference compound] | – | 920 | – | – | 3000 | – | 890 | 43 | 13 | 38 | nanomolar potency
